Data reported in patent US11014896B2, “TRPA1 and TRPV4 inhibitors and methods of using the same for organ-specific inflammation and itch” (Duke University, priority 2014, dated 2021).
Entries after “also recorded” stand apart in the source; their conditions may differ.

Tests used:
[1] = Formalin-evoked nocifensive (rubbing) behavior, whisker-pad injection, in vivo pain model in mice; set-up: species or system mouse; conditions: for formalin-induced nocifensive behavior, time course: FIG. 21D; for formalin-induced nocifensive behavior, quantitation, in particular second phase: compounds pre-injected at 0.5 mM/10 μL into whiskerpad 15 min before 4% formalin
Description: Compounds were tested for their effect in reducing pain using an in vivo pain model in mice. For mouse formalin-evoked irritant behavior measurements, mice were well-fed, well-rested, and tested at the same time of day, at the same time-point of their circadian rhythm. They were allowed to acclimate to a plexiglas chamber for at least 30 min before testing, and received 10 μL subcutaneous injection of 4% of formalin (diluted from an aqueous solution of commercial 37% formaldehyde with normal saline (NS)) through a 30-gauge needle into the right whiskerpad, as further detailed in Luccarini et al. (J. Pain, 2006, 7, 908-914). Normal saline was used as control injection. After injection, mice were immediately placed back into the chamber and the rubbing behavior was recorded by a private consumer-type video-camera for a 45 min observation period. The recording time was divided into 9 blocks of 5 min, and a nociceptive score was determined per block by measuring the time that the animals spent rubbing the injected area predominantly with the ipsilateral fore-paw and rarely with hind-paw. This rubbing behavior with fore-paw is evoked by pain, which is distinct from itch behavior. Behavioral analysis was conducted by observers blinded to treatment.
To investigate the effects of the specific compounds GSK205, 16-8, and 16-8/18hy on formalin-induced nociceptive behavior, mice received a single subcutaneous injection of the compounds into the whiskerpad (10 μL, dissolved in 4% DMSO) 15 min before formalin injection. Control animals received the same volume of NS, 4% DMSO.

[2] = UVB-overexposure evoked nocifensive behavior (mouse model for sunburn), topical treatment; type: in vivo; conditions: 0.5 mM in 40 μL, n=4/group
Description: Compounds were tested for their effect on nocifensive behavior (response to pain) following UVB overexposure. Behavioral tests were performed to evaluate the decrease in withdrawal thresholds in response to mechanical von Frey hair or thermal stimuli applied to hind paws. The Von-Frey apparatus (Ugo Basile) applied a mechanical stimulus with a flexible steel wire from underneath the hind paw. The force leading to withdrawal was determined. For the thermal stimuli test, paws were stimulated with heat from underneath applied by an infrared beam (Hargreave's test apparatus; Ugo Basile), and withdrawal latencies were recorded. The withdrawal thresholds were ascertained before and after UV exposure. Mice were exposed to UVB 3-5 days after the last application of tam/oil, using a Bio-Rad Gel Doc 2000 UV transilluminator (302 nm) for 5 min with an exposure of 600 mJ/cm^2. This represents 5-10 times the minimal erythema-inducing dose, in keeping with the rationale of inducing sunburn and studying sunburn-evoked pain.

human TRPA1 = biological target: T1, human TRPA1 (Homo sapiens, UniProt O75762); assay: Ca2+ transient in N2a cells transfected with human TRPA1; type: cell-based
T1 construct: expressed in transfected cells; host or cells: N2a cells, pcDNA3.1 plasmid, co-transfected with an eGFP plasmid
Description: Compounds were tested for their effect on TRPA1. N2a permanent cells were transfected with human TRPA1 cDNA, using a pcDNA3.1 expression plasmid. They were co-transfected with eGFP-expressing plasmid, or, for control, with eGFP plasmid only.

IL-6 = assay: Keratinocyte IL-6 expression in UVB-exposed footpad after topical treatment; type: in vivo, mouse; conditions: 5 mM GSK205 topical
Description: GSK205 topical treatment: A viscous solution of 68% EtOH/5% glycerol plus 1 mM or 5 mM GSK205 (none for control) was applied to hindpaws by rubbing in 20 μL, applied at time-points 1 hour and again 10 min before UV exposure.
Routine procedures were followed as described previously (Chen et al., 2009). Mice were perfused transcardially with 30 mL PBS, followed by 30 mL 4% paraformaldehyde. Tissues, including the L5 DRGs (bilateral), and footpad preparations, were dissected and post-fixed in 4% paraformaldehyde. Tissue blocks were further cryoprotected in 30% sucrose in PBS for 24-48 hours. For mouse TRPV4, keratin-specific antibodies, phospho-ERK, IL-6, IL-1β, CXCL5 and caspase-1, tissue was prepared as frozen blocks and subsequently sectioned on a cryostat. For CD68, CD15 (neutrophil elastase) and CD3, mouse skin was prepared by 2% PFA perfusion. […]

TRPV4 = TRPV4 (Homo sapiens, UniProt Q9HBA0); assay: TRPV4-mediated calcium influx in N2a cells with targeted expression of human TRPV4; type: cell-based; set-up: expressed in transfected cells; host or cells: N2a cells; conditions: 2.5 μM inhibitor, pre-incubation 10 min; TRPV4 activated with 10 nM GSK101
Description: Compounds (GSK205, 16-12, 16-13, 16-14, 16-18, 16-8, and 16-8/18hy) were tested for their effect on TRPV4-mediated calcium influx in N2a cultured cells with targeted expression of human TRPV4. Ca2+ imaging was performed according to Li et al. (Environ. Health Perspect. 2011, 119, 784-93) and Moore et al. (Proc. Natl. Acad. Sci. U.S.A. 2013, 110, E3225-E3234). Briefly, Ca2+ imaging of primary mouse epidermal keratinocytes (1° MK) in response to chemical activation of TRPV4 was conducted after loading with 2 μM fura2-AM, following a ratiometric Ca2+-imaging protocol with 340/380 nm blue light for dual excitation. Ratios of emissions were acquired at 0.5 Hz. ΔR/R0 was determined as the fraction of the increase of a given ratio over baseline ratio, divided by baseline ratio. For stimulation of cells with UVB, where fura-2 was not suitable because of the proximity of stimulation with 340/380 nm vs. 295 nm, 2 μM fluo4-AM was used instead. Ca2+ imaging was carried out at 488 nm excitation, acquisition of emissions at 0.5 Hz, expressed as ΔF/F0. TRPV4 was activated with 10 nM GSK101, a specific activator, which had no effect on RFP-transfected cells. Each of the […] compounds were added to a concentration of 2.5 μM, and its effect was observed.

TRPV4, sequence (Q9HBA0 whole entry): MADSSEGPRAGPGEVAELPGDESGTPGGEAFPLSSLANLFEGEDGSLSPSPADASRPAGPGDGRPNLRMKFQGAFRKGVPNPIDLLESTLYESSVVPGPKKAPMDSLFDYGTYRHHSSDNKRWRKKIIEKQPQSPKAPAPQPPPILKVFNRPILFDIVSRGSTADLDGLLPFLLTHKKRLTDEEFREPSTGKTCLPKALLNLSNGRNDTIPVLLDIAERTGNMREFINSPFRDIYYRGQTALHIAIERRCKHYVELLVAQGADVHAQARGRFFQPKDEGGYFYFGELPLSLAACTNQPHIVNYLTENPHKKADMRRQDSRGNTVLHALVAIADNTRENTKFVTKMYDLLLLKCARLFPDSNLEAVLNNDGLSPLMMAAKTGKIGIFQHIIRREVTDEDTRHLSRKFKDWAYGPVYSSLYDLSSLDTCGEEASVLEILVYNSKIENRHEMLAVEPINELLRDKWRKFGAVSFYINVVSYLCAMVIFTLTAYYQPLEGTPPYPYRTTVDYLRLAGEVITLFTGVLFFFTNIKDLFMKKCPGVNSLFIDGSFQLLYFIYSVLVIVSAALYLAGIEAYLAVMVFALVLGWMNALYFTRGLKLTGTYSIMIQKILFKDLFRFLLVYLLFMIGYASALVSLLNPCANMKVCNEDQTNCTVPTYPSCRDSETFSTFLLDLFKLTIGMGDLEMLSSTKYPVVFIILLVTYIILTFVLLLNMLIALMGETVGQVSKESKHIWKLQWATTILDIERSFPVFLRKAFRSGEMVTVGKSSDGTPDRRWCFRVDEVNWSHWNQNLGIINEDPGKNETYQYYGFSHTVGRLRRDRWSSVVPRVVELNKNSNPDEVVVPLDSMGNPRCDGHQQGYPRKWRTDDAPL
T1 sequence (O75762 whole entry): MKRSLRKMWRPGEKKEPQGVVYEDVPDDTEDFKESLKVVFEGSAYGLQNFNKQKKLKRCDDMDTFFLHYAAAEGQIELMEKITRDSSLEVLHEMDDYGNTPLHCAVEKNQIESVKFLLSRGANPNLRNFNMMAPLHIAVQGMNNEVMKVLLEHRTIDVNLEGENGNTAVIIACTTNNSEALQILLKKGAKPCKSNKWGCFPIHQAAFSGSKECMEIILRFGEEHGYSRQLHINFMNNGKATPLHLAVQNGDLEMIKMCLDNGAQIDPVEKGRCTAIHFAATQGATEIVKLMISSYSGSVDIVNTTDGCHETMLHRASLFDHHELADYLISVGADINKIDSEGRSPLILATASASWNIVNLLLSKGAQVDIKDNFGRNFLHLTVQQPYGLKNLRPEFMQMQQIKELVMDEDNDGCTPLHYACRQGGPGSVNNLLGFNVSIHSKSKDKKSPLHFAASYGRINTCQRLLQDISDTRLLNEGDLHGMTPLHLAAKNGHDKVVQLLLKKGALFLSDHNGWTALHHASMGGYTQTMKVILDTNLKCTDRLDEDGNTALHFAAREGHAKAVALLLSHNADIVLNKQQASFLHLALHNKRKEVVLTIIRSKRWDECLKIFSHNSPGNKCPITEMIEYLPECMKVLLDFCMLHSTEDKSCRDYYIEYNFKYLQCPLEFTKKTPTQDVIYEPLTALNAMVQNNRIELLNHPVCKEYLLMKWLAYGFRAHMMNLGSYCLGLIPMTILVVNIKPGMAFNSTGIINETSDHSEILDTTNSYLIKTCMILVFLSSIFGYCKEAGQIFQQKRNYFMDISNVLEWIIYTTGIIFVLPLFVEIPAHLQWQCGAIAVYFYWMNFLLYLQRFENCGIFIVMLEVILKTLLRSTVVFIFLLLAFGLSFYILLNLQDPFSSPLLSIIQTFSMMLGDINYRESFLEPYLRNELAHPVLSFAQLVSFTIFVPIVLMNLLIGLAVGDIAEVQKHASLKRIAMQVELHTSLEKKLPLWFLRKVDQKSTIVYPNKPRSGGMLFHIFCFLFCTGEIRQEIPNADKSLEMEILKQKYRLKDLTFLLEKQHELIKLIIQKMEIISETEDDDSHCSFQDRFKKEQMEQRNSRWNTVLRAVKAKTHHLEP

Row | Compound | formalin-induced nocifensive behavior, time course ([1]; 0.5 mM/10 μL) | formalin-induced nocifensive behavior, quantitation, in particular second phase [1] | UVB-overexposure evoked nocifensive behavior (response to pain) [2] | inhibition of TRPA1 activity (human TRPA1; doses below or equaling 25 μM) | keratinocyte expression of IL-6 in UVB-exposed footpad (IL-6) | inhibition of TRPV4-mediated calcium influx (peak calcium concentration in the cells) (TRPV4) | formalin-induced nocifensive behavior at the 45-min time-point ([1]; 0.5 mM/10 μL, 45-min time-point) | inhibitory activity against human TRPA1 (human TRPA1; 5 μM compound)
1 | CN(CCc1ccc(Nc2nc(-c3cccnc3)cs2)cc1)Cc1ccccc1 [GSK205] | not different from control | lack of effect | as effective as vehicle | did not inhibit TRPA1 activity | Comparably significant blocks; also recorded: attenuates keratinocyte expression of IL-6 | very low potency |  | 
2 | CN(CCc1ccc(Nc2nc(-c3ccccc3)cs2)cc1)Cc1ccccc1 [Compound 16-8] | significantly attenuated nocifensive behavior | significant attenuation of nocifensive behavior | especially effective in reducing the response to pain |  |  | most potent | reduction to control levels | inhibitory activity
